These are literature values, as cited in US20220265566A1, “ATOVAQUONE NANOPARTICULATE COMPOSITIONS” (Tulex Pharmaceuticals Inc., priority 2018, published 2022).

SMILES strings stand for the structures.

In the case of `O=C1C(O)=C([C@H]2CC[C@H](c3ccc(Cl)cc3)CC2)C(=O)c2ccccc21` [ATQ, trans-2-[4-(4-chlorophenyl)cyclohexyl]-3-hydroxy-1,4-naphthalenedione], the Solubility in water result is reported as “practically insoluble in water”.
